From PMC9154758, “Alpinetin suppresses CYP3A4, 2C9, and 2E1 activity in vitro” (Pharmaceutical Biology, 2022)

Columns and labels:
Format in all cases: in vitro ADME
CYP3A4 [1] = molecular target: T1, CYP3A4 (Homo sapiens, UniProt P08684); test: CYP3A4 inhibition in pooled human liver microsomes (testosterone 6β-hydroxylation)
T1 construct: The pooled human liver microsomes (HLMs) were obtained from BD Biosciences Discovery Labware; tissue BD Biosciences Discovery Labware; host or cells: pooled human liver microsomes
T1 sequence (P08684 whole entry): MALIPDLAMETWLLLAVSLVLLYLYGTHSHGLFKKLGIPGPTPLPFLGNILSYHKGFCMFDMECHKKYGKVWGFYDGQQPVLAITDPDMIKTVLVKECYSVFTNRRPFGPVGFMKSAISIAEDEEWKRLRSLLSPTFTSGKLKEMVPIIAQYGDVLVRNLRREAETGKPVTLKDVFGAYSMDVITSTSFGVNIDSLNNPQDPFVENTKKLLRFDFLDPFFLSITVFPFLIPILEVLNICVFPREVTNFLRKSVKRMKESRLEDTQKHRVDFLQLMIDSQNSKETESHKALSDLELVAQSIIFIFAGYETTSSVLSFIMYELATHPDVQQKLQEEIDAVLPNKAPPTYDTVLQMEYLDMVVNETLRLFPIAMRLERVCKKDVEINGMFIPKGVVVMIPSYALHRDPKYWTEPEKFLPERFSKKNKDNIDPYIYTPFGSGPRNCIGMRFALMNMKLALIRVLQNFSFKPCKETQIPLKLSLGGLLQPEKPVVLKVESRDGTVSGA
Procedure: (§1) The pooled human liver microsomes (HLMs) were obtained from BD Biosciences Discovery Labware. The HLMs were incubated with specific substrates of corresponding CYP450 isoenzymes under the reaction conditions in Table 1 according to previous reports (Dong et al. [2018]; Zhang et al. [2019]; Zhang, Feng, et al. [2020]). The incubation system also included alpinetin (Figure 1, 99%, Chengdu Munster Biothechnology Co, China, or specific inhibitors) and an β-NADPH generating system as previously reported in the potassium phosphate buffer with a final volume of 200 μL. The β-NADPH generating system contained NADP^+, glucose-6-phosphate, glucose-6-phosphate dehydrogenase, and MgCl2, which was used to initiate the reaction after a pre-incubation of 3 min. At the end of the reactions, the acetonitrile or trichloroacetic acid (for the evaluation of CYP2A6) was added for the termination of the reactions. All reagents were of at least analytical reagent grade obtained from Sigma Aldrich (USA). All incubations were performed in triplicate and the concentrations of metabolites were analysed with HPLC.
(§2) The effect of alpinetin on the activity of CYP1A2, 2A6, 3A4, 2C8, 2C9, 2C19, 2D6, and 2E1 was first evaluated with a concentration of 100 μM. The isoenzymes that were inhibited by alpinetin were further incubated with 0, 2.5, 5, 10, 25, 50, and 100 μM alpinetin to obtain the values of IC50.
(§3) Meanwhile, the kinetic studies were conducted in the presence of various substrate concentrations to obtain the values of Ki. The inhibition model was evaluated according to the following equations: v = (VmaxS)/[Km(1 + I/Ki) + S] for the competitive inhibition and v = (VmaxS)/[(Km + S(1 + I/KiKI)] for the non-competitive inhibition. The I is the concentration of the compound, Ki is the inhibition constant, S is the concentration of the substrate, and Km is the substrate concentration at half the maximum velocity (Vmax) of the reaction.

CYP2E1 [2] = molecular target: T2, CYP2E1 (Homo sapiens, UniProt P05181); test: CYP2E1 inhibition in pooled human liver microsomes (chlorzoxazone 6-hydroxylation)
T2 construct: The pooled human liver microsomes (HLMs) were obtained from BD Biosciences Discovery Labware; tissue BD Biosciences Discovery Labware; host or cells: pooled human liver microsomes
T2 sequence (P05181 whole entry): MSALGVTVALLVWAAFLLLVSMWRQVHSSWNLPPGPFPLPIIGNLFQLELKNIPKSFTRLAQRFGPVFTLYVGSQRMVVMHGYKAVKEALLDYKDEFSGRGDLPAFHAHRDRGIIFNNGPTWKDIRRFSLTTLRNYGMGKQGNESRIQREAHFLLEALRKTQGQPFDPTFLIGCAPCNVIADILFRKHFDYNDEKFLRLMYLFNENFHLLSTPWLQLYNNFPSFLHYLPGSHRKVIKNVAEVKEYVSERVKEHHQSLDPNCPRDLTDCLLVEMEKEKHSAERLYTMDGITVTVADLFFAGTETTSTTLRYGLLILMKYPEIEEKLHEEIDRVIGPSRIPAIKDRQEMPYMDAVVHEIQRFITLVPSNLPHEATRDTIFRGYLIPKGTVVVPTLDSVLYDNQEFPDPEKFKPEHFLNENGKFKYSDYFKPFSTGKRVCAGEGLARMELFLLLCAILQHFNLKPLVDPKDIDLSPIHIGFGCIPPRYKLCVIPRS
Procedure: as §1, §2, §3

CYP2C9 [3] = molecular target: T3, CYP2C9 (Homo sapiens, UniProt P11712); test: CYP2C9 inhibition in pooled human liver microsomes (diclofenac 4′-hydroxylation)
T3 construct: The pooled human liver microsomes (HLMs) were obtained from BD Biosciences Discovery Labware; tissue BD Biosciences Discovery Labware; host or cells: pooled human liver microsomes
T3 sequence (P11712 whole entry): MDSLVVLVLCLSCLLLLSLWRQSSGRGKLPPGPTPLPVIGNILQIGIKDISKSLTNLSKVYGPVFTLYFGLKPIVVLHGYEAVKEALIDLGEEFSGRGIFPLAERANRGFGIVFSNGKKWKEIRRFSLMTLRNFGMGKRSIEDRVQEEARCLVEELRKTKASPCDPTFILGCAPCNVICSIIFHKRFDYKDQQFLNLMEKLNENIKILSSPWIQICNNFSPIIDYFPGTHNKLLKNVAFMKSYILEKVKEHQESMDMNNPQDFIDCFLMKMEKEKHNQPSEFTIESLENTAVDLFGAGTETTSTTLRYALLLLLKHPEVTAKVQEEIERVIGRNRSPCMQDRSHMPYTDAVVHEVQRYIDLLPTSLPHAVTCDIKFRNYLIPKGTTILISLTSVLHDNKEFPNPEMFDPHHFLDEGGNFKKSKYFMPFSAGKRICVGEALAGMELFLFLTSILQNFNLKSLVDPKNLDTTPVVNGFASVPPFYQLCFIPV
Procedure: as §1, §2, §3

CYP2C9 [4] = molecular target: T3, CYP2C9; test: Time-dependent inhibition assay of CYP2C9 in human liver microsomes; conditions: data not shown
Procedure: (§4) The time-dependent inhibition assay was conducted with an incubation time of 0, 5, 10, 15, and 30 min after a 30 min pre-incubation with 1 mg/mL HLMs in the presence of NADPH-generating system at 37 °C.

CYP2E1 [5] = molecular target: T2, CYP2E1; test: Time-dependent inhibition assay of CYP2E1 in human liver microsomes; conditions: data not shown
Procedure: as §4

CYP3A4 [6] = molecular target: T1, CYP3A4; test: Time-dependent inhibition assay of CYP3A4 in human liver microsomes
Procedure: as §4

[7] = 100 μM alpinetin, relative to negative control
[8] = competitive model, various substrate concentrations

Question: Which results are given for `COc1cc(O)cc2c1C(=O)C[C@@H](c1ccccc1)O2` [alpinetin]?
Answer: Effect on CYP3A4 activity (CYP3A4 [1]; [7]): dramatically inhibitory effect; Inhibition model of CYP3A4 (CYP3A4 [1]; best-fitted model, stable Km): non-competitive; Ki (CYP3A4 [1]; non-competitive model, 0, 2, 5, 10, and 20 μM alpinetin, various concentrations of testosterone): 4.09 µM; IC50 (CYP3A4 [1]; pooled HLMs, 0-100 μM alpinetin, testosterone 50 μM): 8.23 µM; Effect on CYP2E1 activity (CYP2E1 [2]; [7]): dramatically inhibitory effect; Ki (CYP2E1 [2]; [8]): 5.4 µM; IC50 (CYP2E1 [2]; pooled HLMs, 0-100 μM alpinetin, chlorzoxazone 120 μM): 11 µM; Inhibition model of CYP2E1 (CYP2E1 [2]; stable Vmax): competitively; Effect on CYP2C9 activity (CYP2C9 [3]; [7]): dramatically inhibitory effect; Ki (CYP2C9 [3]; [8]): 6.42 µM; IC50 (CYP2C9 [3]; pooled HLMs, 0-100 μM alpinetin, diclofenac 10 μM): 12.6 µM; Inhibition model of CYP2C9 (CYP2C9 [3]; stable Vmax): competitively; Time dependence of CYP2C9 inhibition (CYP2C9 [4]): no time-dependent characteristics; Time dependence of CYP2E1 inhibition (CYP2E1 [5]): no time-dependent characteristics; Kinact of time-dependent CYP3A4 inhibition (CYP3A4 [6]; 30 min pre-incubation, 1 mg/mL HLMs, substrate approx. 4-fold Km): 0.041 min⁻¹; Time dependence of CYP3A4 inhibition (CYP3A4 [6]; incubation 0, 5, 10, 15, and 30 min): time-dependent
